Structures are written as SMILES.

The target in test [1] is factor Xa (Homo sapiens, UniProt P00742). Nature of the test: Inhibition of factor Xa. Format: biochemical. The text has this: The inhibition of factor Xa by the compounds according to the invention and the measurement of the anticoagulant and antithrombotic activity can be determined by conventional in-vitro or in-vivo methods. A suitable method is described, for example, by J. Hauptmann et al. in Thrombosis and Haemostasis 1990, 63, 220-223.
The inhibition of factor Xa can be measured, for example, by the method of T. Hara et al. in Thromb. Haemostas. 1994, 71, 314-319.

Test [2] deals with T1, factor VIIa (Homo sapiens, UniProt P08709).
T1 sequence (P08709 213-466 limits assumed): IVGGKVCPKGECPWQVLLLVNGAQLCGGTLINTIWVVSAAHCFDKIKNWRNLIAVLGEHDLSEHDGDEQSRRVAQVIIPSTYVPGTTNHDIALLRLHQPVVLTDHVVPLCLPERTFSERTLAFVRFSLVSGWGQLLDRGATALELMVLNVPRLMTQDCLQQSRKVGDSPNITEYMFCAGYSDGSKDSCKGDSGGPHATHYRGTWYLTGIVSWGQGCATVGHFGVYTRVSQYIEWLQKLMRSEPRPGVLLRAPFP
T1 sequence (P08709 61-212 limits assumed): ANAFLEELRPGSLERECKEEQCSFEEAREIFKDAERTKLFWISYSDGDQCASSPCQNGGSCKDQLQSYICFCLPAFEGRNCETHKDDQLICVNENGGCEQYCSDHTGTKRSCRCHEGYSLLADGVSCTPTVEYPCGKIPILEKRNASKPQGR
Put plainly: Inhibition of factor VIIa. The test is classed as biochemical. The text has this: Coagulation factor VIIa initiates the extrinsic part of the coagulation cascade after binding to tissue factor and contributes to the activation of factor X to give factor Xa. Inhibition of factor VIIa thus prevents the formation of factor Xa and thus subsequent thrombin formation. The inhibition of factor VIIa by the compounds according to the invention and the measurement of the anticoagulant and antithrombotic activity can be determined by conventional in-vitro or in-vivo methods. A conventional method for the measurement of the inhibition of factor VIIa is described, for example, by H. F. Ronning et al. in Thrombosis Research 1996, 84, 73-81.

factor Xa, sequence (P00742 235-488 limits assumed): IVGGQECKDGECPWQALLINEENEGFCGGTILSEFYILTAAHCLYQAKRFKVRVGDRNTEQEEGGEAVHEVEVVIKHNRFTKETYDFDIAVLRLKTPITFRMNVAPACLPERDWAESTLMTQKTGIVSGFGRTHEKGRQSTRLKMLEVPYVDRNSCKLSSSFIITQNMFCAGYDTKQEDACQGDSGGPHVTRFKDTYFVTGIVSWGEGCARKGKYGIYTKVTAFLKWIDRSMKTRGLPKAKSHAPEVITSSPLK
factor Xa, sequence (P00742 41-179 limits assumed): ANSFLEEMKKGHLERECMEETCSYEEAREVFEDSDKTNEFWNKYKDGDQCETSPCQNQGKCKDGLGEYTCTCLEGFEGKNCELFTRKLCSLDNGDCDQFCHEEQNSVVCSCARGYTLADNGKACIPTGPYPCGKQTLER

Turning to `N=C(N)c1cccc(NC(C(=O)Nc2ccc(N3CCOCC3)cc2)c2ccccc2)c1` (stereo not shown) [2-(3-amidinophenylamino)-N-(4-morpholin-4-ylphenyl)-2-phenylacetamide], the IC50 (usually the concentration needed to halve the response being measured) in test [1] was 34 nM; in test [2], 22 nM.

As to `CCCC(Oc1cccc(C(=N)N)c1)C(=O)Nc1ccc(N2CCCC2=O)cc1` (stereo not shown) [2-(3-amidinophenoxy)-N-[4-(2-oxopyrrolidin-1-yl)phenyl]valeramide], the IC50 in test [1] came out at 130 nM; in test [2], 83 nM.

`CCCC(Oc1cccc(C(=N)N)c1)C(=O)Nc1ccc(N2CCCCC2=O)cc1` (stereo not shown) [2-(3-amidinophenoxy)-N-[4-(2-oxopiperidin-1-yl)phenyl]valeramide]: the IC50 turned out to be 70 nM in test [1] and 33 nM in test [2].

In the case of `N=C(N)c1cccc(OC(C(=O)Nc2ccc(N3CCOCC3)cc2)c2ccccc2)c1` (stereo not shown) [2-(3-amidinophenoxy)-N-(4-morpholin-4-ylphenyl)-2-phenylacetamide], the IC50 came out at 90 nM in test [1] and 60 nM in test [2].

In the case of `N=C(N)c1cccc(OC(C(=O)Nc2ccc(N3CCCCC3=O)cc2)c2ccccc2)c1` (stereo not shown) [EMD 388547, 2-(3-amidinophenoxy)-N-[4-(2-oxopiperidin-1-yl)phenyl]-2-phenylacetamide], the results for the IC50 in test [1] and in test [2] were 32 nM and 14 nM, respectively.

As for `N=C(N)c1cccc(OC(C(=O)Nc2ccc(N3CCCC3=O)cc2)c2ccccc2)c1` (stereo not shown) [2-(3-amidinophenoxy)-N-[4-(2-oxopyrrolidin-1-yl)phenyl]-2-phenylacetamide], the IC50 in test [1] came out at 65 nM; in test [2] it was 39 nM.

Regarding `CC(C)CC(Nc1cccc(C(=N)N)c1)C(=O)Nc1ccc(N(C)C)cc1` (stereo not shown) [2-(3-amidinophenylamino)-N-(4-dimethylaminophenyl)-4-methylvaleramide], the IC50 in test [1] is 160 nM; in test [2], 21 nM.

With `CCCC(Oc1cccc(C(=N)N)c1)C(=O)Nc1ccc(N2CCOCC2)cc1` (stereo not shown) [2-(3-amidinophenoxy)-N-(4-morpholin-4-ylphenyl)valeramide], the IC50 in test [1] amounted to 300 nM; in test [2] it was 490 nM.

The record behind these values is US7273867B2, “Phenyl derivatives” (Merck Patent GmbH, priority 2001, dated 2007).
